According to patent US4386103A, “Dichloroamino acid derivatives useful as potent germicidal and fungicidal agents” (Merck & Co., Inc., priority 1981, dated 1983):

Columns and labels:
Rhizopus oryzae = assay: Contact fungicidal screen, Rhizopus oryzae; type: cell-based; conditions: 0.1M NaOAc pH 4.6
Procedure: The organisms used in the Contact Fungicidal Screen are a dermatophyte, trychophyton mentagrophytes, frequently associated with athlete's foot; a yeast, Candida albican, causative agent of thrush and vaginitis; a phycomycete, Rhizopus oryzae, commonly known as black bread mold; an ascomycete, Aspergillus fumagatis, found in chicken droppings and causing lung infections; and another dermatophyte, Microsporum canis, which causes ringworm. These organisms are maintained as stock cultures at 4° C. on agar slants of the following composition: dextrose 2%, Neopeptone (Difco) 1%, agar 2%. Fluid medium of the same nutrient composition (without agar) was used to test the viability of the organisms after exposure to the fungicide. This medium is also known as Sabouraud's medium.
[…]. The mycelial mat is removed from the surface of the agar using a sterile spatula. It is transferred to a heat sterilized glass tissue grinder and macerated with 25 ml of sterile physiological saline. The suspension is then filtered through sterile glass wool. The density of the sporangia spore suspension is determined by counting in a hemacytometer. The suspension is stored at 4° C. until it was used, at which time it was diluted with sterile physiological saline to a density of 5×10^6 spores per ml.
The compounds are weighed into heat sterilized 100 ml volumetric flasks and immediately before screening dissolved in 0.1 M NaOAc pH 4.6 buffer (test solutions).
The Aspergillus, Candida, Microsporum and Rhizopus species are screened in a slightly different manner. Basically, the procedure for the Contact Germicidal Efficiency Screen is utilized. After the test solutions are made up, 5 ml aliquots are pipetted into heat sterilized 25 ml glass stoppered erlenmeyer flasks. The screen is initiated when 0.5 ml of the 5×10^6 cell (spore) per ml suspension is added to the flask containing 5 ml of the test solution. At intervals of 0.5, 2.5, 5.0, 10.0 and 15.0 minutes, a 4 mm loopful of the inoculated test solution is subcultured into 7 mL of sterile fluid Sabouraud's medium and mixed on a vortex, the high dilution serving to stop the action of the compound. The subculture tubes are incubated at 25°-30° C. for ten days with daily observation for mycelial growth. The earliest subculture time at which no growth is present is considered the endpoint and is recorded as the sterilization time.
To insure the viability of the culture, a 0.5 ml aliquot of the 5×10^6 cells (spores) per ml suspension is transferred to 5 ml of the pH 4.6 buffer. A loopful of the inoculated buffer is then subcultured to 7 ml of fluid Sabouraud's medium and incubated at 25°-30° C. for ten days. To insure that the dilution of the test solution into the subculture medium does stop the action, a loopful of the test solution and a loopful of the inoculated buffer are transferred into the same subculture tube. This tube is also incubated at 25°-30° C. for ten days.

germs = assay: Germicidal activity, lowest active concentration; type: cell-based; conditions: read-out: concentration at which germicidal activity is shown
[1] = Stability in Triacetin (preliminary formulation studies); type: physicochemical; conditions: 60° C., two months
Source text: Triacetin is the triacetate of glycerin; it is a viscous liquid with high water solubility and very low toxicity. […] Of course other aprotic polar solvents can be used as well.

Row | SMILES | Sterilization Time (Rhizopus oryzae; 10 PPM) [min] | Sterilization Time (Rhizopus oryzae; 100 PPM) [min] | Sterilization Time (Rhizopus oryzae; 1000 PPM) [min] | minimal effective concentration (germs) [µg/mL] | decomposition in esters of polyalcohols such as Triacetin [1]
1 | CC(C)(COC(=O)CCCC(=O)O)N(Cl)Cl [(V), 2-dichloramino-2-methylpropyl-hemiglutarate] | 15 | 15 | 15 | – | –
2 | CC(C)(CC(=O)O)N(Cl)Cl [(II)] | 15 | 15 | 10.0 | ≤ 5 | –
3 | CC(C)(CCC(=O)O)N(Cl)Cl [(III), 4-Dichloroamino-4-methylvaleric acid] | 15 | 15 | 10.0 | – | –
4 | CC(C)(COC(=O)CCC(=O)O)N(Cl)Cl [(IV), 2-Dichloroamino-2-methylpropylhemisuccinate] | 15 | 15 | 15 | – | no decomposition
